Patent US20120196875A1, “PHARMACEUTICAL COMPOSITIONS FOR TREATMENT OF RESPIRATORY AND INFLAMMATORY DISEASES” (BOEHRINGER INGELHEIM INTERNATIONAL GMBH, priority 2010, published 2012)

Test system: Dunkin-Harley guinea pigs (OVA broncho-constriction)
Experiment: OVA-induced bronchospasm in sensitized, anaesthetized guinea pigs (modified Konzett-Rössler method, pyrilamin pre-treatment)
Format: in vivo, guinea pig
Method: Male and female Dunkin-Harley guinea pigs were obtained from the Experimental Animal Breeding Centre of Harlan Winkelmann (Germany). After fasting overnight, but with free access to drinking water, animals with body weight of 400-500 g were used.
Bronchospasm was recorded with a modified version of the method of Konzett-Röβler (described by Walland et al, in “Compensation of muscarinic bronchial effects of talsaclidine by concomitant sympathetic activation in guinea pigs”, European Journal of Pharmacology, Volume 330, Issue 2-3, 9 July 1997, Pages 213-219). The animals were ventilated by means of a piston pump (starling ventilator, Hugo Sachs Elektronik, Germany) at a stroke volume of 1 ml/100 g body weight and at a rate of 60 strokes per min. The tubing which connected the tracheal cannula with the ventilator was provided with a branch leading to the bronchospasm transducer (bronchospasm transducer 7020, Ugo Basile, Italy). The air flow measurement is based on the hot wire anemometer principle. Any air flow will reduce the temperature of the wire, thereby decreasing its resistance in proportion of the flow. As the wire element is one arm of a Weaststone bridge, variations in resistance generate a proportional voltage output which feeds the amplifier/recording system (Notocord-hem, Notocord, France). Blood pressure and heart rate are monitored from a carotid artery in order to check the anesthesia and the variability of the preparation.
Guinea pigs were sensitized on 2 consecutive days with 20 μg ovalbumin (OVA) (Sigma, St. Louis, Mo.) and 20 mg Al(OH)3 in 0.5 mL saline, which were administered subcutaneously. Experiments, which included OVA challenge, were conducted 2 weeks after sensitization. Approximately 1 hour before OVA challenge, the animals were anaesthetized with an intraperitoneal injection of 50 mg/kg pentobarbital. Anesthesia was prolonged by intravenous infusion of pentobarbital (15 mg/kg/h) via the jugular vein. A tracheal cannula was introduced after tracheotomy for artificial ventilation. The internal jugular vein was cannulated for drug injection while the left carotid artery was cannulated for measuring blood pressure and heart rate. The test compounds or combinations of compounds were administered orally 2 hours before the OVA challenge. Pyrilamin (anti-histaminic) is injected intravenously at 2 mg/kg, 6 minutes before OVA challenge in order to record the non histamine-related bronchospasm. The OVA challenge induces mast cell degranulation responsible for the bronchospasm due to the release into the lung of inflammatory mediators such as histamine, leukotrienes, prostaglandins and tromboxanes. The pre-treatment of the guinea pigs with pyrilamin prevents the part of the bronchospasm induced by histamine (around 40 to 50% of the bronchospasm). 30 Minutes after the beginning of air flow and blood pressure measurements, bronchoconstriction is triggered by an OVA challenge given at a fixed dose of 50 μg/kg inhaled.
The control group comprises 12 guinea-pigs, test compounds comprise 2 to 4 guinea-pigs. At the end of the experiment, animals are euthanized by an overdose of pentobarbital (100 mg/kg i.v.).
OVA challenge in control guinea-pigs induces an overflow of 33 (±10) ml which is used as 100% bronchospasm. Bronchoprotection of the drug (i.e. inhibition of OVA broncho-constriction) is expressed as a percentage of inhibition of the increase in overflow induced by OVA in the control animals.

[1] = CRTH2 antagonist (1) 0.001 mg/kg p.o. alone
[2] = CRTH2 antagonist (1) 0.003 mg/kg p.o. alone
[3] = CRTH2 antagonist (1) 0.01 mg/kg p.o. alone
[4] = CRTH2 antagonist (1) 0.03 mg/kg p.o. alone
[5] = CRTH2 antagonist (1) 0.1 mg/kg p.o. alone
[6] = CRTH2 antagonist (1) 0.3 mg/kg p.o. alone
[7] = CRTH2 antagonist (1) 1.0 mg/kg p.o. alone
[8] = CRTH2 antagonist (1) 3.0 mg/kg p.o. alone
[9] = CRTH2 antagonist (1) 10.0 mg/kg p.o. alone

Compound | bronchoprotection [1] [%] | overflow [1] [mL] | bronchoprotection [2] [%] | overflow [2] [mL] | bronchoprotection [3] [%] | overflow [3] [mL] | bronchoprotection [4] [%] | overflow [4] [mL] | bronchoprotection [5] [%] | overflow [5] [mL] | bronchoprotection [6] [%] | overflow [6] [mL] | bronchoprotection [7] [%] | overflow [7] [mL] | bronchoprotection [8] [%] | overflow [8] [mL] | bronchoprotection [9] [%] | overflow [9] [mL] | overflow (Roflumilast 0.03 mg/kg p.o. alone, 2 hours before OVA challenge) [mL] | bronchoprotection (Roflumilast 0.03 mg/kg p.o. alone, 2 hours before OVA challenge, inhibition of OVA-induced overflow vs control) [%]
CN(C)c1nc(Cc2ccc(NC(=O)c3ccc(C(F)(F)F)cc3)cc2)nc(N(C)C)c1CC(=O)O [CRTH2 antagonist (1), [4,6-bis(dimethylamino)-2-(4-(4-(trifluoromethyl)benzamido)-benzyl)pyrimidin-5-yl]acetic acid] | 0 | 38 | 0 | 35 | 0 | 40 | 0 | 33 | 0 | 41 | 24 | 25 | 42 | 19 | 64 | 12 | 70 | 10 | – | –
O=C(Nc1c(Cl)cncc1Cl)c1ccc(OC(F)F)c(OCC2CC2)c1 [Roflumilast, roflumilast, reference compound] | – | – | – | – | – | – | – | – | – | – | – | – | – | – | – | – | – | – | 28 | 15
